The results in this text go back to patent publication US20090304692A1, “TRIAZINE COMPOUNDS AS PI3 KINASE AND MTOR INHIBITORS” (Wyeth, priority 2008, published 2009).

In one assay the target is PI3K-α (Homo sapiens, UniProt P42336). As to the kind of experiment: PI3K-alpha fluorescence polarization assay. Conditions: read-out: IC50 PI3Kα.
Another assay concerns the target PI3K-γ (Homo sapiens, UniProt P48736). As to the kind of experiment: PI3K-gamma fluorescence polarization assay. Conditions: read-out: IC50 PI3Kγ. (Polarisation of emitted light reports the rotation of a fluorescent probe.)
Another assay concerns the target Human mTOR (FLAG-TOR) (Homo sapiens, UniProt P42345). Put plainly: mTOR kinase assay (DELFIA format, purified enzyme). It counts as biochemical. Conditions: read-out: IC50 mTOR.

Where two headings read alike, the source gives them in different places.

Usually IC50 stands for the point on the concentration scale where inhibition reaches its midpoint.

Chain of PI3K-γ (P48736 whole entry, species assumed): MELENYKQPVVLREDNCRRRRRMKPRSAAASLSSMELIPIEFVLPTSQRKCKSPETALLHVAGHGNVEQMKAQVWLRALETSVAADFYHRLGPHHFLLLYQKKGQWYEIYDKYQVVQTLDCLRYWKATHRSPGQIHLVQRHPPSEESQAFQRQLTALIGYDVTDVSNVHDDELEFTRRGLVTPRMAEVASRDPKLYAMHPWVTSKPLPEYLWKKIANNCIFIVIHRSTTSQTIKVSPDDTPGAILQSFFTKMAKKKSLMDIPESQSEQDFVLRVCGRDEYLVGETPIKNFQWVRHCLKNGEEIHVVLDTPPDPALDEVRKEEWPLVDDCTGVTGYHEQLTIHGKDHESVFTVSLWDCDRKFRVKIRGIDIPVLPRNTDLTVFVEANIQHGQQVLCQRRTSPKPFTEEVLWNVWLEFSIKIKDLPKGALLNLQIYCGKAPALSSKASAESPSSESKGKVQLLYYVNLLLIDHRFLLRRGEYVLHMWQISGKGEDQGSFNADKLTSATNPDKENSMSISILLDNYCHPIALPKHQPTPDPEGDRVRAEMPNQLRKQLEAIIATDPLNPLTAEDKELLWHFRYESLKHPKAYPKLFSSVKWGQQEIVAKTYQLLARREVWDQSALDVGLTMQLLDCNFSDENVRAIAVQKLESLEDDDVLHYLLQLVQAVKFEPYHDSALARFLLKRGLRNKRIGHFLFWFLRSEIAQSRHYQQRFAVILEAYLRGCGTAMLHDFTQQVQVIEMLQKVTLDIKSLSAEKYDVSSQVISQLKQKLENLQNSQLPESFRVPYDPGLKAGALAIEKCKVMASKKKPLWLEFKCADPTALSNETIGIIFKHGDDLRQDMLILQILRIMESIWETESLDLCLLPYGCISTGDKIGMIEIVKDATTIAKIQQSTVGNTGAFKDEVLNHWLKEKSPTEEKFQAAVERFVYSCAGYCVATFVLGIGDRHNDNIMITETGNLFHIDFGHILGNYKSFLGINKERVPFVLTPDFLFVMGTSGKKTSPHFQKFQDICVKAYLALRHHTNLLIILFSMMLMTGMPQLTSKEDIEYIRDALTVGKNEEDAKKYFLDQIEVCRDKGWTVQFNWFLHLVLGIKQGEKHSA
Chain of PI3K-α (P42336 whole entry, species assumed): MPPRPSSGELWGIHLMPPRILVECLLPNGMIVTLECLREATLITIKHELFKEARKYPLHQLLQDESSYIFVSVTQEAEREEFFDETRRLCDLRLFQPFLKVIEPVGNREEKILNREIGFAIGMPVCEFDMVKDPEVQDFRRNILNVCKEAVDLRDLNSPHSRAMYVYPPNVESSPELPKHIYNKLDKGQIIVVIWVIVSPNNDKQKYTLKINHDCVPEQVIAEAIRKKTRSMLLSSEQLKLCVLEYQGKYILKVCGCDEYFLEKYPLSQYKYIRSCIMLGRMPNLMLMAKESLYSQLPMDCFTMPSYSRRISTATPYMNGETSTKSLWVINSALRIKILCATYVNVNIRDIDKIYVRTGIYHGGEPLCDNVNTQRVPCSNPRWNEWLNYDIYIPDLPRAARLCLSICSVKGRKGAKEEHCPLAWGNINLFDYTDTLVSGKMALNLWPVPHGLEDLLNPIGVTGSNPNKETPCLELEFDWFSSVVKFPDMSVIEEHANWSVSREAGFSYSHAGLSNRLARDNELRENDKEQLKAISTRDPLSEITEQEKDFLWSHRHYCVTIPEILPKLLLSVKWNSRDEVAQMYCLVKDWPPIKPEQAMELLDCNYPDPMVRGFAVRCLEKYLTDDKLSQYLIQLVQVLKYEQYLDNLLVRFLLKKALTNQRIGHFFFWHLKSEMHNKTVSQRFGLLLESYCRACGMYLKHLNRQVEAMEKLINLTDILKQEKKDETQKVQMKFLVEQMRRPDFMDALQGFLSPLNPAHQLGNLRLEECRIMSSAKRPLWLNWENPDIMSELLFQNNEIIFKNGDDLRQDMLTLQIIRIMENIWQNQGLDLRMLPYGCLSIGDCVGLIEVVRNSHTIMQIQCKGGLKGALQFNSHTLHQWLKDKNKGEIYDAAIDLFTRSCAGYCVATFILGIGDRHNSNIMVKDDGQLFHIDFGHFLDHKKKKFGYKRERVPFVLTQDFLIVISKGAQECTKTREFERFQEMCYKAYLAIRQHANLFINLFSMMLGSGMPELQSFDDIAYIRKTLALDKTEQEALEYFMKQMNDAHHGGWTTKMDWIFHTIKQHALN
Chain of PI3K-α (P27986 whole entry partner, species assumed): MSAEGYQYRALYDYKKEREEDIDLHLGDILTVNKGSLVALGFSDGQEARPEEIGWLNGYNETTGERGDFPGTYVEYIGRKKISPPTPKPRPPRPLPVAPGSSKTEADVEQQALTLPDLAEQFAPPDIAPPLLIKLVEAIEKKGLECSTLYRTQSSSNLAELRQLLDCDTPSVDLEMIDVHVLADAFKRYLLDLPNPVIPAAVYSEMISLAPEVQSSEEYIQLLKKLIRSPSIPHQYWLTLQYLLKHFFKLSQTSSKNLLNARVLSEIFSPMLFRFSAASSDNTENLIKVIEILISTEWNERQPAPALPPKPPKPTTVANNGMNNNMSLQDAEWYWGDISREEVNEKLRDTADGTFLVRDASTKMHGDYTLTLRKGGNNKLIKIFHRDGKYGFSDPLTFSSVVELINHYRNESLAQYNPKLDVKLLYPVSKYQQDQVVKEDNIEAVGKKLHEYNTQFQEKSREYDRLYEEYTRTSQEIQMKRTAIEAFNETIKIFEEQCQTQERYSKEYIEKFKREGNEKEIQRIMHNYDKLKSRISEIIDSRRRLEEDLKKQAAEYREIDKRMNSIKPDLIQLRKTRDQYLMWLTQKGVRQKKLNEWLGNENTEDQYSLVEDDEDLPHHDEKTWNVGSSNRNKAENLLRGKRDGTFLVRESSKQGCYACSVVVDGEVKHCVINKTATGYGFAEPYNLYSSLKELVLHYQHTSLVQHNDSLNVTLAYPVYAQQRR
Chain of Human mTOR (FLAG-TOR) (P42345 1360-2549 limits assumed): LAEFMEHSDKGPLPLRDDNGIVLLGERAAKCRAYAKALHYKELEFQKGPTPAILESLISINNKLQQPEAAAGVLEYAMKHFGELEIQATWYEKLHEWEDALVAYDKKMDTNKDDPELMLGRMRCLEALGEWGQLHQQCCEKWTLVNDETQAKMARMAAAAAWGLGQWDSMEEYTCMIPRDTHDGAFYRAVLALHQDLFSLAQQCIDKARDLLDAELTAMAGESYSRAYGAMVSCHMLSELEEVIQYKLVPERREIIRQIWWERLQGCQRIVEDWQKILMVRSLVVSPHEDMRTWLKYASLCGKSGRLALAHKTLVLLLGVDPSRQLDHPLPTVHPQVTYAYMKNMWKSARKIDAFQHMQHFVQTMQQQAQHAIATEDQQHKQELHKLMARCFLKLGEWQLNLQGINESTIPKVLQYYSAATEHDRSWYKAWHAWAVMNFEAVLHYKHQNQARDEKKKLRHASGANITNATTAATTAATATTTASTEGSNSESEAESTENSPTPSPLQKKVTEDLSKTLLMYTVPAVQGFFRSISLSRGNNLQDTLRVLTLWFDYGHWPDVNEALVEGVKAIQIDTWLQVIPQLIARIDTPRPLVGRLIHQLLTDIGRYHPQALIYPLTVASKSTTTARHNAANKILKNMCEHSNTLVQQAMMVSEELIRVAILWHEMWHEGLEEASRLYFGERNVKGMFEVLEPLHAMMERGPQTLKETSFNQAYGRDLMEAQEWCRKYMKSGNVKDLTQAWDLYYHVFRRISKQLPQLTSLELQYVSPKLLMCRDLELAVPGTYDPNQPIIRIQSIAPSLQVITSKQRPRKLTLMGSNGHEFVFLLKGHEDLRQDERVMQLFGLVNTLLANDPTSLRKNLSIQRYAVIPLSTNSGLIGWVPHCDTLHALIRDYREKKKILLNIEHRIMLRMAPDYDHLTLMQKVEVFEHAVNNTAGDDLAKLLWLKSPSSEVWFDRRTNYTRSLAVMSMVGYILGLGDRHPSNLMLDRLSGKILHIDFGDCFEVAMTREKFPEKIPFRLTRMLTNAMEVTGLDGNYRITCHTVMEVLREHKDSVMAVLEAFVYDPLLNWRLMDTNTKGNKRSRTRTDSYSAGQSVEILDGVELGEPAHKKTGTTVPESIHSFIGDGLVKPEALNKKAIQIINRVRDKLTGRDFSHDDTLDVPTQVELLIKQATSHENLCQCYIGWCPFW

Regarding `CN1CCN(c2ccc(NC(=O)Nc3ccc(-c4nc(NS(=O)(=O)c5ccccc5)nc(N5CCOCC5)n4)cc3)cc2)CC1` [Example 782, N-{4-[4-({[4-(4-methylpiperazin-1-yl)phenyl]carbamoyl}amino)phenyl]-6-morpholin-4-yl-1,3,5-triazin-2-yl}benzenesulfonamide], the IC50 turned out to be 124 nM at PI3K-α, 252 nM on PI3K-γ and 110 nM at Human mTOR (FLAG-TOR).
`CN(C)CCOc1ccc(NC(=O)Nc2ccc(-c3nc(NS(=O)(=O)c4ccccc4)nc(N4CCOCC4)n3)cc2)cc1` [Example 783, N-(4-{4-[({4-[2-(dimethylamino)ethoxy]phenyl}carbamoyl)amino]phenyl}-6-morpholin-4-yl-1,3,5-triazin-2-yl)benzenesulfonamide]: the figures for the IC50 on PI3K-α, at PI3K-γ and on Human mTOR (FLAG-TOR) were 346 nM, 736 nM and 295 nM, respectively.
Consider `COC(=O)c1ccc(NC(=O)Nc2ccc(-c3nc(NS(=O)(=O)c4ccccc4)nc(N4CCOCC4)n3)cc2)cc1` [Example 789, methyl 4-{[(4-{4-morpholin-4-yl-6-[(phenylsulfonyl)amino]-1,3,5-triazin-2-yl}phenyl)carbamoyl]amino}benzoate], for which the IC50 at PI3K-α was found to be 870 nM; on PI3K-γ, 1160 nM; on Human mTOR (FLAG-TOR), 59 nM.
In the case of `O=C(Nc1ccc(C(=O)O)cc1)Nc1ccc(-c2nc(NS(=O)(=O)c3ccccc3)nc(N3CCOCC3)n2)cc1` [Example 790, 4-{[(4-{4-morpholin-4-yl-6-[(phenylsulfonyl)amino]-1,3,5-triazin-2-yl}phenyl)carbamoyl]amino}benzoic acid], the concentration for half-maximal inhibition (IC50) at PI3K-α is 244 nM; on PI3K-γ, 593 nM; on Human mTOR (FLAG-TOR) it was 65 nM.
Consider `Cc1cc(NC(=O)Nc2ccc(-c3nc(N4CCOCC4)nc(N4CC5CCC4CO5)n3)cc2)n(C)n1` (stereo not shown) [Example 808, 1-(1,3-dimethyl-1H-pyrazol-5-yl)-3-{4-[4-morpholin-4-yl-6-(2-oxa-5-azabicyclo[2.2.2]oct-5-yl)-1,3,5-triazin-2-yl]phenyl}urea], for which the results for the IC50 on PI3K-α, on PI3K-γ and at Human mTOR (FLAG-TOR) were 381 nM, 1260 nM and 260 nM, respectively.
In the same order, the values of `O=C(Nc1ccc(-c2nc(N3CCOCC3)nc(N3CC4CCC3CO4)n2)cc1)Nc1cc[nH]n1` (stereo not shown) [Example 809, 1-{4-[4-morpholin-4-yl-6-(2-oxa-5-azabicyclo[2.2.2]oct-5-yl)-1,3,5-triazin-2-yl]phenyl}-3-(1H-pyrazol-3-yl)urea] are 395 nM, 2190 nM and 67 nM.
In the same order, the values of `O=C(Nc1ccncc1)Nc1ccc(-c2nc(N3CCOCC3)nc(N3C4COCC3[C@H](O)C4)n2)cc1` (stereo partly drawn) [Example 820, 1-(4-{4-[(6R)-6-hydroxy-3-oxa-8-azabicyclo[3.2.1]oct-8-yl]-6-morpholin-4-yl-1,3,5-triazin-2-yl}phenyl)-3-pyridin-4-ylurea] are 6.1 nM, 67 nM and 0.515 nM.
In the same order, the values of `O=C(Nc1ccncc1)Nc1ccc(-c2nc(N3CCOCC3)nc(N3C4COCC3[C@H](OCc3ccccc3)C4)n2)cc1` (stereo partly drawn) [Example 821, 1-(4-{4-[(6R)-6-(benzyloxy)-3-oxa-8-azabicyclo[3.2.1]oct-8-yl]-6-morpholin-4-yl-1,3,5-triazin-2-yl}phenyl)-3-pyridin-4-ylurea] are 9.3 nM, 58.3 nM and 3.4 nM.
On to `O=C(Nc1ccc(C(=O)N2CCS(=O)(=O)CC2)cc1)Nc1ccc(-c2nc(N3CCOCC3)nc(N3C4CCC3COC4)n2)cc1` [Example 822, 1-{4-[(1,1-dioxidothiomorpholin-4-yl)carbonyl]phenyl}-3-{4-[4-morpholin-4-yl-6-(3-oxa-8-azabicyclo[3.2.1]oct-8-yl)-1,3,5-triazin-2-yl]phenyl}urea], for which the IC50 came out at 3 nM at PI3K-α, 31.5 nM on PI3K-γ and 0.335 nM on Human mTOR (FLAG-TOR).
Regarding `CN(C)[C@@H]1CCN(C(=O)c2ccc(NC(=O)Nc3ccc(-c4nc(N5CCOCC5)nc(N5C6CCC5COC6)n4)cc3)cc2)C1` [Example 825, 1-(4-{[(3R)-3-(dimethylamino)pyrrolidin-1-yl]carbonyl}phenyl)-3-{4-[4-morpholin-4-yl-6-(3-oxa-8-azabicyclo[3.2.1]oct-8-yl)-1,3,5-triazin-2-yl]phenyl}urea], the IC50 came to 2 nM on PI3K-α, 2.05 nM at PI3K-α (listed as 828), 13 nM at PI3K-γ and 185 nM at Human mTOR (FLAG-TOR).
As to `C[C@H]1COCCN1c1nc(-c2ccc(NC(=O)Nc3ccncc3)cc2)nc(N2C3CCC2COC3)n1` [Example 829, 1-(4-{4-[(3S)-3-methylmorpholin-4-yl]-6-(3-oxa-8-azabicyclo[3.2.1]oct-8-yl)-1,3,5-triazin-2-yl}phenyl)-3-pyridin-4-ylurea], the IC50 at PI3K-α worked out at 10.5 nM; at PI3K-γ it was 188 nM; on Human mTOR (FLAG-TOR) it was 520 nM.
`C[C@H]1COCCN1c1nc(-c2ccc(NC(=O)Nc3ccc(C(=O)N(C)CCN(C)C)cc3)cc2)nc(N2C3CCC2COC3)n1` [Example 831, N-[2-(dimethylamino)ethyl]-N-methyl-4-{[(4-{4-[(3S)-3-methylmorpholin-4-yl]-6-(3-oxa-8-azabicyclo[3.2.1]oct-8-yl)-1,3,5-triazin-2-yl}phenyl)carbamoyl]amino}benzamide]: the figures for the IC50 on PI3K-α, on PI3K-γ and at Human mTOR (FLAG-TOR) were 3.3 nM, 87.5 nM and 265 nM, respectively.
Consider `C[C@H]1COCCN1c1nc(-c2ccc(NC(=O)Nc3ccc(C(=O)O)cc3)cc2)nc(N2C3CCC2COC3)n1` [Example 832, 4-{[(4-{4-[(3S)-3-methylmorpholin-4-yl]-6-(3-oxa-8-azabicyclo[3.2.1]oct-8-yl)-1,3,5-triazin-2-yl}phenyl)carbamoyl]amino}benzoic acid], for which the IC50 on PI3K-α was found to be 61.5 nM; on PI3K-γ, 342 nM; at Human mTOR (FLAG-TOR), 165 nM.
Take `C[C@H]1COCCN1c1nc(-c2ccc(NC(=O)Nc3ccc(C(=O)N4CC[C@@H](N(C)C)C4)cc3)cc2)nc(N2C3CCC2COC3)n1` [Example 833, 1-(4-{[(3R)-3-(dimethylamino)pyrrolidin-1-yl]carbonyl}phenyl)-3-(4-{4-[(3S)-3-methylmorpholin-4-yl]-6-(3-oxa-8-azabicyclo[3.2.1]oct-8-yl)-1,3,5-triazin-2-yl}phenyl)urea]: the IC50 stood at 5.6 nM at PI3K-α, 81.5 nM at PI3K-γ and 185 nM at Human mTOR (FLAG-TOR).
With `C[C@H]1COCCN1c1nc(-c2ccc(NC(=O)Nc3ccc(C(=O)N4CC[C@H](N(C)C)C4)cc3)cc2)nc(N2C3CCC2COC3)n1` [Example 834, 1-(4-{[(3S)-3-(dimethylamino)pyrrolidin-1-yl]carbonyl}phenyl)-3-(4-{4-[(3S)-3-methylmorpholin-4-yl]-6-(3-oxa-8-azabicyclo[3.2.1]oct-8-yl)-1,3,5-triazin-2-yl}phenyl)urea], the IC50 on PI3K-α amounted to 4.8 nM; at PI3K-γ, 86.5 nM; at Human mTOR (FLAG-TOR), 680 nM.
With `CCN1CCN(C(=O)c2ccc(NC(=O)Nc3ccc(-c4nc(N5C6CCC5COC6)nc(N5CCOC[C@@H]5C)n4)cc3)cc2)CC1` [Example 836, 1-{4-[(4-ethylpiperazin-1-yl)carbonyl]phenyl}-3-(4-{4-[(3S)-3-methylmorpholin-4-yl]-6-(3-oxa-8-azabicyclo[3.2.1]oct-8-yl)-1,3,5-triazin-2-yl}phenyl)urea], the IC50 came out at 5.1 nM at PI3K-α, 41 nM at PI3K-γ and 665 nM at Human mTOR (FLAG-TOR).
